Reference: patent publication US5112866A, “Ethanesulfonamide derivatives” (Ortho Pharmaceutical Corporation, priority 1989, dated 1992)
Where a name gives a salt, the structure may show the parent alone.

Test system: Mouse osteoblastic-line cells (MC3T3-El)
Test: Mouse Osteoblast-line Cell Proliferation (3H-thymidine)
Assay type: cell-based
Details: 0.1% FBS
Method: Pharmacology of the Ethenesulfonyl Fluoride Compounds--In Vitro Mouse Osteoblast-line Cell Proliferation
Reagents: Mouse osteoblastic-line cells (MC3T3-El) were plated in Dulbeccos Modified Eagles Medium (DMEM) with 25 mM Hepes Buffer, L-Glutamine, D-Glucose(4.5 gm/1) supplemented with 10% fetal bovine sera, Penicillin (100 units/ml) and Streptomycin ([…]) (Penicillin-Streptomycin liquid) and sodium pyruvate (10 μM final concentration). ^3 H-Thymidine (6.7 Ci/mmole) was diluted in DMEM media without FBS and filter sterilized. An aliquot of this solution was delivered to each culture well to a final concentration of ^3 H-thymidine of 0.4 μCi per well (2 μCi/ml).
Test Preparations: Solutions of the test compound were made on the day before incubation. These compounds were solubilized in either ethanol or DMSO at a concentration of 100 mM containing 0.1% FBS. The solutions were filter sterilized and then sterile serial dilutions were performed with DMEM media containing 0.1% FBS.
Osteoblast line cells were plated into 96 well culture plates, 1600 cells in 100 μL per well in DMEM with 25 mM Hepes Buffer, L-Glutamine, D-Glucose (4.5 gm/L) supplemented with 10% fetal bovine sera, Penicillin (100 units/mL) and Streptomycin (100 μg/mL) and sodium Pyruvate (10 μM final concentration). The media was replaced with DMEM containing no FBS and the cells were then incubated for an additional 24 hours. The following day, test compounds were added and screened at concentrations ranging from 10^-10 to 10^-5 M in the Presence of 0.1% FBS. The cells were then incubated an additional 20 hours. At this time 0.4 μ/Ci of 3H-thymidine was added to each culture well and the cells were incubated an additional 4 hours. The cells were then harvested with a Skatron Cell Harvester onto a glass fiber filter and washed with water, %5 trichloroacetic acid (TCA) and then 95% ethanol. The filters were then processed and counted on the LKB beta plate scintillation counter.

Compound	Mouse Osteoblast-line Cell Proliferation [Expressed as a Percent of Control] (0.001 μM)	Mouse Osteoblast-line Cell Proliferation [Expressed as a Percent of Control] (0.01 μM)	Mouse Osteoblast-line Cell Proliferation [Expressed as a Percent of Control] (0.1 μM)	Mouse Osteoblast-line Cell Proliferation [Expressed as a Percent of Control] (1.0 μM)	Mouse Osteoblast-line Cell Proliferation [Expressed as a Percent of Control] (10 μM)
O=S(=O)(F)CCNc1ccccc1 [Example 18, Monohydrochloride]	132.6% of Control	125.6% of Control	108.1% of Control	93.1% of Control	95.9% of Control
CCCCc1ccc(NCCS(=O)(=O)F)cc1 [Example 19, Monohydrochloride]	109.0% of Control	143.3% of Control	159.8% of Control	97.4% of Control	115.7% of Control
O=S(=O)(F)CCNc1ccc(F)cc1 [Example 20, Monohydrochloride]	133.4% of Control	111.8% of Control	110.2% of Control	116.9% of Control	112.3% of Control
Cc1ccc(NCCS(=O)(=O)F)cc1 [Example 21]	131.5% of Control	132.0% of Control	126.6% of Control	119.9% of Control	111.8% of Control
COc1ccc(NCCS(=O)(=O)F)cc1OC [Example 22, Monohydrochloride]	143.6% of Control	133.6% of Control	116.4% of Control	113.5% of Control	106.7% of Control
O=S(=O)(F)CCNc1ccc(C(F)(F)F)cc1 [Example 23]	108.1% of Control	97.9% of Control	107.3% of Control	120.8% of Control	111.7% of Control
COc1ccc(CCN(C)CCS(=O)(=O)F)cc1OC [Example 24, N-[2-(Fluorosulfonyl)ethyl]-3,4-dimethoxy-N-methylphenethylamine]	150.4% of Control	143.9% of Control	153.5% of Control	123.3% of Control	106.7% of Control
CCc1ccc(NCCS(=O)(=O)F)cc1 [Example 25, Monohydrochloride]	139.4% of Control	123.3% of Control	100.9% of Control	110.6% of Control	90.0% of Control
CC(C)(C)c1ccc(NCCS(=O)(=O)F)cc1 [Example 26, Hydrate]	152.8% of Control	165.7% of Control	89.9% of Control	102.7% of Control	93.2% of Control
CC(C)c1ccc(NCCS(=O)(=O)F)cc1 [Example 27, Hydrate]	137.2% of Control	130.0% of Control	106.9% of Control	110.8% of Control	97.7% of Control
